ChEMBL document CHEMBL3046455, “Synthesis and pharmacological evaluation of some novel 4-isopropyl thiazole-based sulfonyl derivatives as potent antimicrobial and antitubercular agents” (Med Chem Res, 2013)
In brackets after ≈: the same amount, converted by molar mass.

Key:
[1] = system: Escherichia coli; test: Antibacterial activity against Escherichia coli ATCC 10536 after 24 hr by broth microdilution method; assay type: functional; conditions: ATCC 10536, 24 h
[2] = system: Klebsiella pneumoniae; test: Antibacterial activity against Klebsiella pneumoniae ATCC 10031 after 24 hr by broth microdilution method; assay type: functional; conditions: ATCC 10031, 24 h
[3] = system: Bacillus subtilis; test: Antibacterial activity against Bacillus subtilis ATCC 60511 after 24 hr by broth microdilution method; assay type: functional; conditions: ATCC 60511, 24 h
[4] = system: Staphylococcus aureus; test: Antibacterial activity against Staphylococcus aureus ATCC 11632 after 24 hr by broth microdilution method; assay type: functional; conditions: ATCC 11632, 24 h
[5] = system: Enterococcus faecalis; test: Antibacterial activity against Enterococcus faecalis ATCC 14506 after 24 hr by broth microdilution method; assay type: functional; conditions: ATCC 14506, 24 h
[6] = system: Pseudomonas aeruginosa; test: Antibacterial activity against Pseudomonas aeruginosa ATCC 10145 after 24 hr by broth microdilution method; assay type: functional; conditions: ATCC 10145, 24 h
[7] = system: Mycobacterium tuberculosis; test: Antitubercular activity against Mycobacterium tuberculosis H37Rv after 21 days by broth microdilution method; assay type: functional; conditions: 504 h
[8] = system: Aspergillus niger; test: Antifungal activity against Aspergillus niger ATCC 6275 after 24 hr by broth microdilution method; assay type: functional; conditions: ATCC 6275, 24 h
[9] = system: Candida tropicalis; test: Antifungal activity against Candida tropicalis ATCC 1369 after 24 hr by broth microdilution method; assay type: functional; conditions: ATCC 1369, 24 h
[10] = system: Saccharomyces cerevisiae; test: Antifungal activity against Saccharomyces cerevisiae ATCC 9763 after 24 hr by broth microdilution method; assay type: functional; conditions: ATCC 9763, 24 h
[11] = system: A549; test: Cytotoxicity against Homo sapiens (human) A549 cells at […] by MTT assay relative to control; assay type: cell-based

SMILES	MIC [1]	MIC [2]	MIC [3]	MIC [4]	MIC [5]	MIC [6]	MIC [7]	MIC [8]	MIC [9]	MIC [10]	Activity [11]
O=C(O)c1cn(C2CC2)c2cc(N3CCNCC3)c(F)cc2c1=O [CIPROFLOXACIN]	≤ 1 µg/mL	≤ 1 µg/mL	≤ 1 µg/mL	≤ 5 µg/mL	≤ 5 µg/mL	≤ 5 µg/mL					
NNC(=O)c1ccncc1 [ISONIAZID]							0.25 µg/mL (≈ 1.82 µM)				
CC(C)c1csc(-c2nnc(S(=O)(=O)Cc3ccc(Br)cc3)o2)n1	4 µg/mL (≈ 9.34 µM)	8 µg/mL (≈ 18.7 µM)	31.2 µg/mL (≈ 73 µM)	8 µg/mL (≈ 18.7 µM)	31.2 µg/mL (≈ 73 µM)	8 µg/mL (≈ 18.7 µM)	4 µg/mL (≈ 9.34 µM)	31.2 µg/mL (≈ 73 µM)	31.2 µg/mL (≈ 73 µM)	62.5 µg/mL (≈ 146 µM)	
CC(C)c1csc(-c2nnc(S(=O)(=O)Cc3ccccc3)o2)n1	8 µg/mL (≈ 22.9 µM)	8 µg/mL (≈ 22.9 µM)	31.2 µg/mL (≈ 89.4 µM)	62.5 µg/mL (≈ 179 µM)	16 µg/mL (≈ 45.8 µM)	8 µg/mL (≈ 22.9 µM)	4 µg/mL (≈ 11.4 µM)	16 µg/mL (≈ 45.8 µM)	8 µg/mL (≈ 22.9 µM)	4 µg/mL (≈ 11.4 µM)	
CC(C)c1csc(-c2nnc(S(=O)(=O)Cc3ccc(C(F)(F)F)cc3)n2/N=C/c2ccc(Cl)cc2)n1	8 µg/mL (≈ 14.4 µM)	16 µg/mL (≈ 28.9 µM)	4 µg/mL (≈ 7.22 µM)	4 µg/mL (≈ 7.22 µM)	8 µg/mL (≈ 14.4 µM)	4 µg/mL (≈ 7.22 µM)	4 µg/mL (≈ 7.22 µM)	4 µg/mL (≈ 7.22 µM)	8 µg/mL (≈ 14.4 µM)	4 µg/mL (≈ 7.22 µM)	50%
CC(C)c1csc(-c2nnc(S(=O)(=O)Cc3cc(Cl)ccc3F)n2-c2ccccc2)n1	4 µg/mL (≈ 8.39 µM)	8 µg/mL (≈ 16.8 µM)	31.2 µg/mL (≈ 65.5 µM)	16 µg/mL (≈ 33.5 µM)	31.2 µg/mL (≈ 65.5 µM)	8 µg/mL (≈ 16.8 µM)	4 µg/mL (≈ 8.39 µM)	31.2 µg/mL (≈ 65.5 µM)	16 µg/mL (≈ 33.5 µM)	16 µg/mL (≈ 33.5 µM)	
CC(C)c1csc(-c2nnc(S(=O)(=O)Cc3ccc(Cl)cc3)n2/N=C/c2ccc(F)cc2)n1	16 µg/mL (≈ 31.7 µM)	31.2 µg/mL (≈ 62 µM)	4 µg/mL (≈ 7.94 µM)	8 µg/mL (≈ 15.9 µM)	4 µg/mL (≈ 7.94 µM)	16 µg/mL (≈ 31.7 µM)	8 µg/mL (≈ 15.9 µM)	31.2 µg/mL (≈ 62 µM)	31.2 µg/mL (≈ 62 µM)	31.2 µg/mL (≈ 62 µM)	
OC(Cn1cncn1)(Cn1cncn1)c1ccc(F)cc1F [FLUCONAZOLE]								≤ 1 µg/mL	≤ 1 µg/mL	≤ 1 µg/mL	
CC(C)c1csc(-c2nnc(S(=O)(=O)Cc3ccc(Br)cc3F)n2/N=C/c2ccc(F)cc2)n1	8 µg/mL (≈ 14.1 µM)	8 µg/mL (≈ 14.1 µM)	31.2 µg/mL (≈ 55.2 µM)	16 µg/mL (≈ 28.2 µM)	31.2 µg/mL (≈ 55.2 µM)	62.5 µg/mL (≈ 110 µM)	16 µg/mL (≈ 28.2 µM)	31.2 µg/mL (≈ 55.2 µM)	31.2 µg/mL (≈ 55.2 µM)	31.2 µg/mL (≈ 55.2 µM)	
CC(C)c1csc(-c2nnc(S(=O)(=O)Cc3ccc(C(F)(F)F)cc3)n2/N=C/c2c(F)cccc2F)n1	4 µg/mL (≈ 7.2 µM)	16 µg/mL (≈ 28.8 µM)	8 µg/mL (≈ 14.4 µM)	8 µg/mL (≈ 14.4 µM)	16 µg/mL (≈ 28.8 µM)	8 µg/mL (≈ 14.4 µM)	0.5 µg/mL (≈ 0.9 µM)	8 µg/mL (≈ 14.4 µM)	4 µg/mL (≈ 7.2 µM)	16 µg/mL (≈ 28.8 µM)	50%
CCn1cc(C(=O)O)c(=O)c2cc(F)c(N3CCNCC3)cc21 [NORFLOXACIN]	≤ 1 µg/mL	≤ 1 µg/mL	≤ 1 µg/mL	≤ 5 µg/mL	≤ 5 µg/mL	≤ 5 µg/mL					
CC(C)c1csc(-c2nnc(S(=O)(=O)Cc3ccc(Cl)cc3)n2/N=C/c2c(F)cccc2F)n1	8 µg/mL (≈ 15.3 µM)	31.2 µg/mL (≈ 59.9 µM)	8 µg/mL (≈ 15.3 µM)	31.2 µg/mL (≈ 59.9 µM)	31.2 µg/mL (≈ 59.9 µM)	62.5 µg/mL (≈ 120 µM)	8 µg/mL (≈ 15.3 µM)	31.2 µg/mL (≈ 59.9 µM)	16 µg/mL (≈ 30.7 µM)	62.5 µg/mL (≈ 120 µM)	
CC(C)c1csc(-c2nnc(S(=O)(=O)Cc3ccccc3C(F)(F)F)o2)n1	8 µg/mL (≈ 19.2 µM)	2 µg/mL (≈ 4.79 µM)	31.2 µg/mL (≈ 74.9 µM)	8 µg/mL (≈ 19.2 µM)	16 µg/mL (≈ 38.3 µM)	4 µg/mL (≈ 9.58 µM)	2 µg/mL (≈ 4.79 µM)	125 µg/mL (≈ 299 µM)	31.2 µg/mL (≈ 74.9 µM)	8 µg/mL (≈ 19.2 µM)	50%
